Common to all, as to format: functional, tissue-based
In experiment [1] the target is T1, Substance-K receptor (Cavia porcellus) (UniProt Q64077).
T1 sequence (whole entry): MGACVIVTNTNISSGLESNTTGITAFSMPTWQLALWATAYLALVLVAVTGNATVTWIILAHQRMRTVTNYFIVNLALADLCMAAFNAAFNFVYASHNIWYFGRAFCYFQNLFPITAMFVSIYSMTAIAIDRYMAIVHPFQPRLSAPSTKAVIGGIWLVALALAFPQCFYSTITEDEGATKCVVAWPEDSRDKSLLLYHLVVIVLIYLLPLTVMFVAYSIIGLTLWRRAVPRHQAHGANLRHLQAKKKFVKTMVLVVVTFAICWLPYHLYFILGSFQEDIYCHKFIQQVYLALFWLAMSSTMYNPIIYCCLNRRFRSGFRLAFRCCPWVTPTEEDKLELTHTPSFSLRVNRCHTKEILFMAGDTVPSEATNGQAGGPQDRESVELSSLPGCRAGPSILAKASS
The experiment in a line: Antagonist activity at NK2 receptor in guinea pig trachea as inhibition of [beta-Ala8]NKA(4-10)-induced bronchoconstriction.

Experiment [2] has as its target T1, Substance-K receptor (Cavia porcellus). The experiment in a line: Antagonist activity at NK2 receptor in guinea pig trachea as inhibition of [beta-Ala8]NKA(4-10)-induced bronchoconstriction relative to control. Also noted: scale not given: the % may be the effect or the level left.
In experiment [3] the target is Substance-P receptor (Cavia porcellus) (UniProt P30547). The experiment in a line: Antagonist activity at NK1 receptor in guinea pig trachea as inhibition of ASM-SP-induced bronchoconstriction relative to control. Further details: scale not given: the % may be the effect or the level left.
Experiment [4] shares this target. In words: Antagonist activity at NK1 receptor in guinea pig trachea as inhibition of ASM-SP-induced bronchoconstriction.
Experiment [5] has the same target. The experiment in a line: Antagonist activity at NK1 receptor in guinea pig trachea as inhibition of ASM-SP-induced bronchoconstriction up to 1 uM.
In experiment [6] the target is T1, Substance-K receptor (Cavia porcellus). The experiment in a line: Antagonist activity at NK2 receptor in guinea pig trachea as inhibition of [beta-Ala8]NKA(4-10)-induced bronchoconstriction up to 1 uM.

Calls of active or inactive are those of the source. The calls are words filed in the database; no cut-off is given here.

By pKb is commonly meant the Kb on a negative log10 scale, so that one unit is a factor of ten.

Chain of Substance-P receptor (Cavia porcellus) (P30547 whole entry): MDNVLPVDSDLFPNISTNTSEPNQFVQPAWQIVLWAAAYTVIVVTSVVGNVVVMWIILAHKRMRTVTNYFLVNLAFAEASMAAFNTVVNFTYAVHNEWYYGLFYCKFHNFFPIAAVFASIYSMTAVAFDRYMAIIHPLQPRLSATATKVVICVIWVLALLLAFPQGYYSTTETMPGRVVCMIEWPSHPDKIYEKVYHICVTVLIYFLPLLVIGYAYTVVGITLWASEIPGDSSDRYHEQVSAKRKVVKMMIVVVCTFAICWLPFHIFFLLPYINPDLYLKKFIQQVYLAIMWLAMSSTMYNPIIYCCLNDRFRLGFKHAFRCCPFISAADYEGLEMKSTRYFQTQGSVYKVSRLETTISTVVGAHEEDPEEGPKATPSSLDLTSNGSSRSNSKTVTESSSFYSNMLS

Take `CN(C(=O)c1cc([N+](=O)[O-])cc([N+](=O)[O-])c1)[C@@H](/C=C/C(=O)N[C@@H]1CCCCNC1=O)Cc1ccc(Cl)c(Cl)c1`: the negative logarithm of the Kb (pKb) amounted to 7.87 in experiment [1] and 8.4 in experiment [4]. In addition, the Activity in experiment [2] and in experiment [3] was 96.1% each time.
`CN(C(=O)c1cc(C(F)(F)F)cc(C(F)(F)F)c1)[C@@H](/C=C/C(=O)N[C@@H]1CCCCNC1=O)Cc1ccc(Cl)c(Cl)c1`: the pKb in experiment [1] came to 7.43; in experiment [4], 9.2. The Activity in experiment [2] stood at 97%; in experiment [3], 89.4%.
As to `CN(C(=O)c1cc(NC(=O)CBr)cc(NC(=O)CBr)c1)[C@@H](/C=C/C(=O)N[C@@H]1CCCCNC1=O)Cc1ccc(Cl)c(Cl)c1`, the result in experiment [5] and in experiment [6] was inactive.
Regarding `CC(=O)Nc1cc(NC(C)=O)cc(C(=O)N(C)[C@@H](/C=C/C(=O)N[C@@H]2CCCCNC2=O)Cc2ccc(Cl)c(Cl)c2)c1`, the outcome in experiment [5] and in experiment [6] was inactive.
For the molecule `COC(=S)Nc1cc(NC(=S)OC)cc(C(=O)N(C)[C@@H](/C=C/C(=O)N[C@@H]2CCCCNC2=O)Cc2ccc(Cl)c(Cl)c2)c1`, the outcome in experiment [5] and in experiment [6] was inactive.
Consider `CN(C(=O)c1cc(N=C=S)cc(N=C=S)c1)[C@@H](/C=C/C(=O)N[C@@H]1CCCCNC1=O)Cc1ccc(Cl)c(Cl)c1`, for which the result in experiment [5] and in experiment [6] was inactive.
Regarding `CN(C(=O)c1cc(N)cc(N)c1)[C@@H](/C=C/C(=O)N[C@@H]1CCCCNC1=O)Cc1ccc(Cl)c(Cl)c1`, the result in experiment [5] and in experiment [6] was inactive.

The values are drawn from ChEMBL document CHEMBL1144575, “Design and synthesis of 3,5-disubstituted benzamide analogues of DNK333 as dual NK1/NK2 receptor probes” (Bioorg Med Chem Lett, 2007).
